Experimental data published in patent US10611730B2, “Benzimidazolone and benzothiazolone compounds and their use as AMPA receptor modulators” (Janssen Pharmaceutica NV, priority 2015, dated 2020).

target: TARP γ8 dependent AMPA receptor (GluA1o-g8 fusion channel) (Homo sapiens (Human), UniProt P42261+Q8WXS5); assay: Calcium flux assay (FLIPR), HEK293 cells expressing GRIA1o-CACNG8 fusion; assay type: cell-based; details: inhibition of calcium flux after 15 μM glutamate, read-out: GluR1-γ8 pIC50 (converted)
Sequence (P42261 other isoform, or with tags, fused parts or gaps): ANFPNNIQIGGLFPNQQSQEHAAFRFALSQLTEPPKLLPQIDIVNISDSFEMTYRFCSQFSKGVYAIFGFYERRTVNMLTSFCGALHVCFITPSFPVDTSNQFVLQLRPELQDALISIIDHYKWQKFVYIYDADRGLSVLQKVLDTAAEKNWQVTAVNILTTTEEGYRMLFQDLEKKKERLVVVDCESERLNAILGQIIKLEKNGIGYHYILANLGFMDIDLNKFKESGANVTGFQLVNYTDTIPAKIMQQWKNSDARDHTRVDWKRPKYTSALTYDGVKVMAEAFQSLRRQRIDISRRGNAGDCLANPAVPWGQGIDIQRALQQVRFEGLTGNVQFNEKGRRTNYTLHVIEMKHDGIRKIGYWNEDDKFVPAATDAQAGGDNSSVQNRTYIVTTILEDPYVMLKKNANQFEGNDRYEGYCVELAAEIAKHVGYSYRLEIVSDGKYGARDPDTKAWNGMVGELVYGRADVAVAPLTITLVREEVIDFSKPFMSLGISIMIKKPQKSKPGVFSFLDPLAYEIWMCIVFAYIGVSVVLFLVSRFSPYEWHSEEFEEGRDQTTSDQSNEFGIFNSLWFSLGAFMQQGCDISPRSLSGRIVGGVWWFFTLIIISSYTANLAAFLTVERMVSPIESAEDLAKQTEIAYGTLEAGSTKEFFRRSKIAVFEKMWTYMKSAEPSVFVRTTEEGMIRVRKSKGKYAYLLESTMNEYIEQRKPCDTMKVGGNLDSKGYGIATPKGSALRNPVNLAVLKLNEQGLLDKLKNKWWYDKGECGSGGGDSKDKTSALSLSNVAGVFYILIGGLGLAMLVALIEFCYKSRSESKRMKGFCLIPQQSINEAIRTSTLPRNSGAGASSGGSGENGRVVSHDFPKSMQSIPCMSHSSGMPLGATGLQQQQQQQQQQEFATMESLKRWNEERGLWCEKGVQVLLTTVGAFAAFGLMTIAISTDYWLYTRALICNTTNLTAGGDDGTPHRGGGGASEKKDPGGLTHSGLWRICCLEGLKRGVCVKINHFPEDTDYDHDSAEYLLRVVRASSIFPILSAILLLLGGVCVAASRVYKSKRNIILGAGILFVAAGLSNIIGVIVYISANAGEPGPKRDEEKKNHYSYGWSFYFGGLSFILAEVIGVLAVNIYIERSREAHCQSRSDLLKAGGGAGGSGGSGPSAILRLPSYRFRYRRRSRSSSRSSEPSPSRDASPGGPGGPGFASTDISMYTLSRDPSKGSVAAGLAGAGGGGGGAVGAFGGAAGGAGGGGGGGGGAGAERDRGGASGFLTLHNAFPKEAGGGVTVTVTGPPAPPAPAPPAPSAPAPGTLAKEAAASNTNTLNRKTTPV
Source text: This assay was used to test compounds for their ability to inhibit TARP γ8 dependent AMPA receptor activity.
An in vitro assay was used to determine the potency of test compounds as inhibitors of the glutamate response of the channel formed by GluA1o-g8. To ensure a 1:1 stoichiometry of GluA1o and g8 subunits in the expressed channel, a fusion of the cDNAs for GRIA1o and CACNG8 was used. […] A clonal cell line in HEK293 cells stably expressing this construct, with a geneticin selection marker, was generated for use in this assay. Cell expressing the GRIAlo-CACNG8 fusion construct were grown in a monolayer in 96- or 384-well microtiter plates. […] The cells were then loaded with a calcium-sensitive dye (Calcium-5 or Calcium-6, Molecular Devices) and the test compounds at a range of concentrations.
The fluorescence in each well was normalized to the fluorescence of negative and positive control wells. […] The responses to glutamate as functions of the test compound concentrations were fitted to a four-parameter logistic function. The fitted parameter corresponding to the midpoint was taken to be the potency of inhibition of the compound.

| IC50 [µM] | SMILES |
| --- | --- |
| 1 | O=c1[nH]c2ccc(-c3c(F)cccc3F)cc2[nH]1 [Example 52, 5-(2,6-Difluorophenyl)-1,3-dihydrobenzimidazol-2-one] |
| 0.316 | O=c1[nH]c2ccc(-c3c(Cl)cccc3Oc3cncs3)cc2[nH]1 [Example 101, 5-(2-Chloro-6-thiazol-5-yloxy-phenyl)-1,3-dihydrobenzimidazol-2-one] |
| 0.0794 | O=c1[nH]c2ccc(-c3cccc(OC(F)F)c3Cl)cc2[nH]1 [Example 113, 5-[2-Chloro-3-(difluoromethoxy)phenyl]-1,3-dihydrobenzimidazol-2-one] |
| 0.501 | Cc1c(-c2ccc3[nH]c(=O)[nH]c3c2)cccc1-c1nnco1 [Example 194, 5-[2-Methyl-3-(1,3,4-oxadiazol-2-yl)phenyl]-1,3-dihydrobenzimidazol-2-one] |
| 0.0501 | O=c1[nH]c2ccc(-c3c(Cl)cccc3OCC(F)(F)F)cc2[nH]1 [Example 95, 5-[2-Chloro-6-(2,2,2-trifluoroethoxy)phenyl]-1,3-dihydrobenzimidazol-2-one] |
| 0.0794 | CC(C)Oc1cccc(Cl)c1-c1ccc2[nH]c(=O)[nH]c2c1 [Example 91, 5-(2-Chloro-6-isopropoxy-phenyl)-1,3-dihydrobenzimidazol-2-one] |
| 3.98 | CN(C)c1cccc(-c2ccc3[nH]c(=O)[nH]c3c2)c1Cl [Example 189, 5-[2-Chloro-3-(dimethylamino)phenyl]-1,3-dihydrobenzimidazol-2-one] |
| 0.0631 | Cc1c(-c2ccc3[nH]c(=O)[nH]c3c2)cccc1-c1ncno1 [Example 199, 5-[2-Methyl-3-(1,2,4-oxadiazol-5-yl)phenyl]-1,3-dihydrobenzimidazol-2-one] |
| 0.0316 | O=c1[nH]c2ccc(-c3cccc(Cl)c3OC(F)(F)F)cc2[nH]1 [Example 29, 5-[3-Chloro-2-(trifluoromethoxy)phenyl]-1,3-dihydrobenzimidazol-2-one] |
| 1 | COc1cnccc1-c1cccc(Cl)c1-c1ccc2[nH]c(=O)[nH]c2c1 [Example 171, 5-[2-Chloro-6-(3-methoxy-4-pyridyl)phenyl]-1,3-dihydrobenzimidazol-2-one] |
| 0.316 | Cc1cccc(-c2ccccc2F)c1-c1ccc2[nH]c(=O)[nH]c2c1 [Example 180, 5-[2-(2-Fluorophenyl)-6-methyl-phenyl]-1,3-dihydrobenzimidazol-2-one] |
| 3.98 | O=c1[nH]c2ccc(-c3c(Cl)cccc3-c3cncnc3)cc2[nH]1 [Example 178, 5-(2-Chloro-6-pyrimidin-5-yl-phenyl)-1,3-dihydrobenzimidazol-2-one] |
| 2 | Cc1nnc(-c2cccc(-c3ccc4[nH]c(=O)[nH]c4c3)c2Cl)o1 [Example 191, 5-[2-Chloro-3-(5-methyl-1,3,4-oxadiazol-2-yl)phenyl]-1,3-dihydrobenzimidazol-2-one] |
| 0.398 | Cn1cc(-c2cccc(Cl)c2-c2ccc3[nH]c(=O)[nH]c3c2)cn1 [Example 173, 5-[2-Chloro-6-(1-methylpyrazol-4-yl)phenyl]-1,3-dihydrobenzimidazol-2-one] |

Second part, the molecule before the results:

| SMILES | IC50 [µM] |
| --- | --- |
| Cc1c(CN2CCCC2)cccc1-c1ccc2[nH]c(=O)[nH]c2c1 [Example 156, 5-[2-Methyl-3-(pyrrolidin-1-ylmethyl)phenyl]-1,3-dihydrobenzimidazol-2-one] | 6.31 |
| Cc1ccc(OCC(C)C)c(-c2ccc3[nH]c(=O)[nH]c3c2)c1 [Example 15, 5-(2-Isobutoxy-5-methyl-phenyl)-1,3-dihydrobenzimidazol-2-one] | 0.0316 |
| Cc1c(C(=O)Nc2ccccc2)cccc1-c1ccc2[nH]c(=O)[nH]c2c1 [Example 79, 2-Methyl-3-(2-oxo-1,3-dihydrobenzimidazol-5-yl)-N-phenyl-benzamide] | 0.794 |
| CC(C)(C)Oc1cccc(Cl)c1-c1ccc2[nH]c(=O)[nH]c2c1 [Example 116, 5-(2-tert-Butoxy-6-chloro-phenyl)-1,3-dihydrobenzimidazol-2-one] | 0.158 |
| COc1cccc(OC(C)C)c1-c1ccc2[nH]c(=O)[nH]c2c1 [Example 28, 5-(2-Isopropoxy-6-methoxy-phenyl)-1,3-dihydrobenzimidazol-2-one] | 0.0794 |
| O=c1[nH]c2ccc(-c3cc(C(F)(F)F)ccc3Cl)cc2[nH]1 [Example 25, 5-[2-Chloro-5-(trifluoromethyl)phenyl]-1,3-dihydrobenzimidazol-2-one] | 0.251 |
| CC(C)(C)OC(=O)N1CCC=C(c2cccc(-c3ccc4[nH]c(=O)[nH]c4c3)c2Cl)C1 [Example 186, tert-Butyl 5-[2-chloro-3-(2-oxo-1,3-dihydrobenzimidazol-5-yl)phenyl]-3,6-dihydro-2H-pyridine-1-carboxylate] | 0.00631 |
| Cc1c(CN2CCSCC2)cccc1-c1ccc2[nH]c(=O)[nH]c2c1 [Example 154, 5-[2-Methyl-3-(thiomorpholinomethyl)phenyl]-1,3-dihydrobenzimidazol-2-one] | 0.2 |
| CC1(C)CN(Cc2cccc(-c3ccc4[nH]c(=O)[nH]c4c3)c2Cl)CCO1 [Example 143, 5-[2-Chloro-3-[(2,2-dimethylmorpholin-4-yl)methyl]phenyl]-1,3-dihydrobenzimidazol-2-one] | 0.1 |
| CC(C)Oc1cccc(-c2ccc3[nH]c(=O)[nH]c3c2)c1Cl [Example 110, 5-(2-Chloro-3-isopropoxy-phenyl)-1,3-dihydrobenzimidazol-2-one] | 0.0316 |
| O=c1[nH]c2ccc(-c3ccccc3C(F)(F)F)cc2[nH]1 [Example 4, 5-[2-(Trifluoromethyl)phenyl]-1,3-dihydrobenzimidazol-2-one] | 0.501 |
| Cc1c(CN2CCCCC2)cccc1-c1ccc2[nH]c(=O)[nH]c2c1 [Example 147, 5-[2-Methyl-3-(1-piperidylmethyl)phenyl]-1,3-dihydrobenzimidazol-2-one] | 1.58 |
| Cc1c(CN2CCOC(C)(C)C2)cccc1-c1ccc2[nH]c(=O)[nH]c2c1 [Example 149, 5-[3-[(2,2-Dimethylmorpholin-4-yl)methyl]-2-methyl-phenyl]-1,3-dihydrobenzimidazol-2-one] | 0.02 |
| CC(C)Oc1cccc(OC(C)C)c1-c1ccc2[nH]c(=O)[nH]c2c1 [Example 107, 5-(2,6-Diisopropoxyphenyl)-1,3-dihydrobenzimidazol-2-one] | 0.0631 |
| COC(=O)c1ccc(Cl)c(-c2ccc3[nH]c(=O)[nH]c3c2)c1 [Example 44, Methyl 4-chloro-3-(2-oxo-1,3-dihydrobenzimidazol-5-yl)benzoate] | 0.316 |
| Cc1nnc(-c2cccc(-c3ccc4[nH]c(=O)[nH]c4c3)c2C)o1 [Example 195, 5-[2-Methyl-3-(5-methyl-1,3,4-oxadiazol-2-yl)phenyl]-1,3-dihydrobenzimidazol-2-one] | 2.51 |
| N#CCc1ccccc1-c1ccc2[nH]c(=O)[nH]c2c1 [Example 41, 2-[2-(2-Oxo-1,3-dihydrobenzimidazol-5-yl)phenyl]acetonitrile] | 0.501 |
| Cc1c(C#N)cccc1-c1ccc2[nH]c(=O)[nH]c2c1 [Example 67, 2-Methyl-3-(2-oxo-1,3-dihydrobenzimidazol-5-yl)benzonitrile] | 0.251 |
| CNC(=O)Cc1c(-c2ccc3[nH]c(=O)[nH]c3c2)cccc1C(F)(F)F [Example 78, N-Methyl-2-[2-(2-oxo-1,3-dihydrobenzimidazol-5-yl)-6-(trifluoromethyl)phenyl] acetamide] | 0.2 |
